Here are results for 2 compounds from publication PMC7146544, “Dual Plasmepsin-Targeting Antimalarial Agents Disrupt Multiple Stages of the Malaria Parasite Life Cycle” (Cell Host & Microbe, 2020).

Structures are written as SMILES. Values joined by “and” are separate entries in the source; they are usually repeats but may differ in a detail not shown here. Equal values may be shown once. Read-outs that look alike come from different tables or passages of the source.

In assay [1] the test system is WM5 and 4 resistant P. falciparum. In words: microbe, parasite or virus in culture. The format is cell-based, Plasmodium falciparum. On the procedure:
After 72 h incubation at 37°C each well was fixed at room temperature for 30 min with 50 μL of 0.25% glutaraldehyde (ProSciTech) diluted in PBS. Following centrifugation at 1200 rpm for 1 min, supernatants were discarded and parasites were stained with 50 μL of 5X SYBR Green (Invitrogen) diluted in PBS. 50,000 cells were counted by flow cytometry using a Cell Lab Quanta SC – MPL Flow Cytometer (Beckman Coulter) ([Bacon et al., 2007]). Growth was expressed as a percentage of the parasitemia obtained using a vehicle control. All samples were tested in triplicate. EC50 values were determined using GraphPad Prism.
The parent and resistant lines were then cloned by limiting dilution, the EC50 for each line was determined and genomic DNA was purified from clonal parasites (QIAGEN Blood and Tissue Kit).

For assay [2], the target named is T1, P. falciparum aspartic protease, PMV (Plasmodium falciparum, UniProt Q8I6Z5).
T1 construct: made in house
T1 sequence (Q8I6Z5 whole entry): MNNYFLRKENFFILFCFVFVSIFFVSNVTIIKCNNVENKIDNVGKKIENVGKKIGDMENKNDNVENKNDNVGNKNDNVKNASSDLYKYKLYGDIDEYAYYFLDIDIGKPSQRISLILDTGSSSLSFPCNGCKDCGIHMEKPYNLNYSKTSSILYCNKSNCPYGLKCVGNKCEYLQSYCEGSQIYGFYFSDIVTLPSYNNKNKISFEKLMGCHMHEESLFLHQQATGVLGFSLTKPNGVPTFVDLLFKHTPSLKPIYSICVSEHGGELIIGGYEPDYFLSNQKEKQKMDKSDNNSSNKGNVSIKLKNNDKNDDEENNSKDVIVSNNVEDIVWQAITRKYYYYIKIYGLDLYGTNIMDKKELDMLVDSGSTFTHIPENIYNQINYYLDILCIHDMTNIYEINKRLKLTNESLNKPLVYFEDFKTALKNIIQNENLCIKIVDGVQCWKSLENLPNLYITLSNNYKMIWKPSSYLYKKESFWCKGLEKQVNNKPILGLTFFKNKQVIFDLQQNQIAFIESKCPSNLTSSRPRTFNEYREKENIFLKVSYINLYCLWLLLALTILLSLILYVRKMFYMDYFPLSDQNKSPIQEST
In words: Peptide cleavage (FRET) assay, PMV. In kind it is biochemical. The conditions noted are these: calculated from IC50 with Cheng-Prusoff equation.

For another assay, the system named is PMIX. In words: CETSA thermal stability assay, PMIX. In kind it is binding, P. falciparum. On the procedure:
Lysate CETSA experiments were conducted essentially as described ([Dziekan et al., 2019]). Samples for CETSA studies were prepared using highly synchronous schizont stage P. falciparum 3D7-PMIX_HA and 3D7-PMX_HA parasites. Late-stage parasites (40–44 h post-invasion) were purified by Percoll density gradient and incubated with 1 μM compound 1 (C1) inhibitor (synthesized in-house) ([Hale et al., 2017]). After 2–4 h incubation, mature schizonts were washed once with PBS and pelleted infected red blood cells were lysed in 20 volumes of 0.15% (w/v) saponin in PBS and incubated on ice for 20 min. Parasites were washed 3 times in ice-cold PBS and the final pellet was resuspended in 10 volumes of lysis buffer (0.4% NP-40 (Roche) / PBS) and lysed by three freezing (dry ice/ethanol bath) - thawing cycles. The lysates were cleared by centrifugation at 16,000 g for 30 min and the supernatant containing soluble parasite proteins kept at −80°C until use. […] After blocking the membrane in 5% non-fat milk in TBST (M-TBST), PMIX_HA and PMX_HA were detected with anti-HA mAb 12CA5 (produced in-house) followed by HRP-conjugated a-mouse IgG Abs (Merck). Blots were developed with ECL Western Blotting Substrate (Thermo Fisher Scientific), and the images were generated and analyzed using ChemiDoc Gel Imaging System and Image Lab Software (Bio-Rad).

The next assay deals with T2, PMX (Plasmodium falciparum, UniProt Q8IAS0).
T2 construct: endogenous in cells
T2 sequence (Q8IAS0 222-573): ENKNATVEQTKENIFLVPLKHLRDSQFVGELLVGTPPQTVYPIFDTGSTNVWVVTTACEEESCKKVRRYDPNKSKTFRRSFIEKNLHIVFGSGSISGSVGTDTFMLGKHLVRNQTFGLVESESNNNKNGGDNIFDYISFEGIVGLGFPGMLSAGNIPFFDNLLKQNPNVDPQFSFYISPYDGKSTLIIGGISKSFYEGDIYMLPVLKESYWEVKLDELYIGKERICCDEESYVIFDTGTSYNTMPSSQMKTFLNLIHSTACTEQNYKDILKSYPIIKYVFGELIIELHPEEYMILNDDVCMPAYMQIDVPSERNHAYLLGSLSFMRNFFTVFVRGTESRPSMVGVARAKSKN
In kind it is binding, P. falciparum. The conditions noted are these: CETSA.

The test system of a further assay is P. falciparum 3D7-PMX-HA. Kind of assay: EC50 in knock down parasite line 3D7-PMX-HA. The conditions noted are these: presence vs absence of 2.5 mM GlcN. In kind it is cell-based, Plasmodium falciparum.
The test system of assay [3] is P. falciparum 3D7-PMIX-HA. Kind of assay: EC50 in knock down parasite line 3D7-PMIX-HA. In kind it is cell-based, Plasmodium falciparum. The conditions noted are these: presence vs absence of 2.5 mM GlcN.
A further assay deals with 3D7 parasite cultures. Kind of assay: Time of drug killing. In kind it is cell-based, Plasmodium falciparum. The conditions noted are these: 80nM WM4, 40nM WM5, 5nM WM382, added to early rings. The protocol:
3D7 parasite cultures were synchronized using 5% sorbitol (Sigma) twice at 46 h intervals then again when the culture was a mix of late schizonts and early rings. […] The parasitemia of each culture was quantitated every 8 h for 48 h by collecting 50 μL samples for counting by flow cytometry (as previously described). The developmental stage of the parasites was confirmed at each time point by microscopic examination of Giemsa stained thin blood films. Media and compound were replaced at the 32 h time point.

In assay [4] the test system is P. falciparum gametocytes. Kind of assay: Standard membrane feeding assay (SMFA), transmission to mosquitoes. The format is cell-based, Plasmodium falciparum. The conditions noted are these: gametocytes treated day 13 to day 17; oocysts counted day 7 after feeding. On the procedure: NF54 P. falciparum cultures were synchronized and maintained as described earlier at 5%–10% parasitemia at 4% hematocrit. Once parasitemia reached 8%–10% rings, parasites were diluted to 0.65% parasitemia in desired volume for the gametocyte cultures (10 mL for Petri dish or 6 × 5 mL for 6-well plate). Gametocyte cultures were supplied with gametocyte media consisted of O+ erythrocyte at 4% hematocrit in Roswell Park Memorial Institute (RPMI) 1640 medium supplemented with 26 mM 4-(2-hydroxyethyl)piperazine-1-ethanesulfonic acid (HEPES), 50 μg/mL hypoxanthine, 2.9% NaHCO3, and 10% heat-inactivated human serum. Sexual stage gametocytes were induced by allowing continuous growth cultures without the addition of fresh human erythrocytes ([Vaughan et al., 2012]). […] Stage V gametocytemia was determined by light microscopy examination of methanol fixed, Giemsa stained thin smear under 1,000 magnification. […]
On day 7 after feeding with gametocyte bloodmeal, infected mosquitoes were aspirated into a cup and anesthetized by incubating them at −20°C for 5 min until immobilized. […] Collected midguts were maintained in 1X phosphate buffered saline (PBS, GIBCO) until stained with mercurochrome for 20 min then placed on a glass slide and counted for oocysts by microscopy.

The mark [5] stands for this setting: Plasmodium falciparum, 3D7, read-out: EC50, 3D7-WM4.1, WM4-resistant line 3D7-WM4.1.
The mark [6] stands for this setting: Plasmodium falciparum, 3D7, read-out: EC50, 3D7-WM5.1, WM5-resistant line 3D7-WM5.1.

With `CC(NC(=O)c1cccc(C(c2ccccc2)N2C(=N)NC(C)(C(C)C)CC2=O)c1)c1ccccc1` (racemic) [WM4], the EC50 in assay [1] (setting [5]) is 113 ± 2.3 nM; in assay [1] (Plasmodium falciparum, 3D7, read-out: EC50, 3D7-WM4.2, WM4-resistant line 3D7-WM4.2, Figure S1), 140 ± 52.7 nM; in assay [1] (setting [6]), 93.2 ± 2.04 nM; in assay [1] (Plasmodium falciparum, 3D7, read-out: EC50, 3D7-WM5.2, WM5-resistant line 3D7-WM5.2, Figure S1), 142 ± 5.5 nM; in assay [1] (Plasmodium falciparum, 3D7, read-out: EC50, 3D7-WM5.3, WM5-resistant line 3D7-WM5.3, Figure S1), 135 ± 3.8 nM; in assay [1] (read-out: EC50, 3D7-WM4.1, WM4-resistant line 3D7-WM4.1), 93 nM and 65.9 nM. Besides, the concentration for a half-maximal effect (EC50) in assay [1] (read-out: EC50, 3D7-WM5.1, WM5-resistant line 3D7-WM5.1) amounted to 115 ± 18.8 nM. In addition, the Ki in assay [2] was 19800 ± 500 nM. In the assay with PMIX, the “effect on thermal stability of PMIX” value is “no effect on the thermal stability of PMIX”. The “effect on thermal stability of PMX” value on PMX is on record as “stabilized PMX”. For the same compound, the “change of EC50 when PMX expression was decreased” value in the assay on P. falciparum 3D7-PMX-HA is recorded as “significantly decreased”. Moreover, in assay [3], the “change of EC50 when PMIX expression was decreased” value is “no significant change”. In addition, in the assay with 3D7 parasite cultures, the “stage of arrest of blood-stage development” value is recorded as “arrested at late schizont stage”. Also, the “oocyst numbers in mosquitoes fed treated gametocytes” value in assay [4] was “no significant reduction in oocyst numbers”.
Consider `CCC1(CC)CC(=O)N([C@@H]2CCOc3ccc(C(=O)N[C@H]4CC(C)(C)Oc5ccccc54)cc32)C(=N)N1` [WM382], for which the results for the EC50 in assay [1] (setting [5]) and in assay [1] (setting [6]) were 1.88 ± 0.03 nM and 2.04 ± 0.05 nM, respectively. Also, the Ki in assay [2] is 13400 ± 620 nM. Also, the “effect on thermal stability of PMIX” value in the assay on PMIX was “significantly more thermostable”. On PMX, the “effect on thermal stability of PMX” value was “significantly more thermostable”. Also, the “change of EC50 when PMX expression was decreased” value with P. falciparum 3D7-PMX-HA is listed as “significantly decreased”. The “change of EC50 when PMIX expression was decreased” value in assay [3] was “significantly more sensitive”. In addition, in the assay with 3D7 parasite cultures, the “stage of arrest of blood-stage development” value is “arrested at late schizont stage”. In addition, the “oocyst numbers in mosquitoes fed treated gametocytes” value in assay [4] was “potently inhibited oocyst development”.

For orientation: EC50 means the concentration needed to bring the measured effect to its halfway point. As a reminder, the Ki is the equilibrium dissociation constant of an inhibitor or competing ligand from its target.
